Among the data in US10131653B2, “Heterocyclic compound” (TAKEDA PHARMACEUTICAL COMPANY LIMITED, priority 2015, dated 2018) are inhibition values, retold here.

Read-outs that look alike come from different tables or passages of the source.

The target of one experiment is T1, human OX1 receptor (Homo sapiens, UniProt O43613).
T1 construct: expressed in transfected cells; host or cells: CHO cells
T1 sequence (O43613 1-425): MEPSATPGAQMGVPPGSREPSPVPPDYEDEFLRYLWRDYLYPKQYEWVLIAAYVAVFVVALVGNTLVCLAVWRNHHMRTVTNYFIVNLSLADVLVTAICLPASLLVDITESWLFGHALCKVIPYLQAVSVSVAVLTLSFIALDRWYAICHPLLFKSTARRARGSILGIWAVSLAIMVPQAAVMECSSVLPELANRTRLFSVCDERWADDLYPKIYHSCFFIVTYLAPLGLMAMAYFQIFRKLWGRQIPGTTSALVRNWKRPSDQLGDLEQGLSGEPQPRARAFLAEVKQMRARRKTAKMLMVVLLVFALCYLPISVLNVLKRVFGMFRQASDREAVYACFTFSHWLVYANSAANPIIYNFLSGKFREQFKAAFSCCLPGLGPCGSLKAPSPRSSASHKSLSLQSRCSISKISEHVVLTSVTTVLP
Put plainly: Measurement of orexin receptor antagonistic activity (calcium fluorescence, FLIPRtetra). Format: cell-based. As to conditions: CHO, read-out: Human Orexin1 receptor inhibition (at 10 μM). A digest of the protocol: (§1)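 Calcium fluorescence measured by FLIPRtetra every second for 2 min after orexin-A challenge, 1 nM final for OX1 and 0.3 nM final for OX2. Receptor-expressing CHO cells received compound in HEPES-buffered HBSS with 0.1% BSA just before agonist.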

In the next experiment the target is T2, human OX2 receptor (Homo sapiens, UniProt O43614).
T2 construct: expressed in transfected cells; host or cells: CHO cells
T2 sequence (O43614 1-444): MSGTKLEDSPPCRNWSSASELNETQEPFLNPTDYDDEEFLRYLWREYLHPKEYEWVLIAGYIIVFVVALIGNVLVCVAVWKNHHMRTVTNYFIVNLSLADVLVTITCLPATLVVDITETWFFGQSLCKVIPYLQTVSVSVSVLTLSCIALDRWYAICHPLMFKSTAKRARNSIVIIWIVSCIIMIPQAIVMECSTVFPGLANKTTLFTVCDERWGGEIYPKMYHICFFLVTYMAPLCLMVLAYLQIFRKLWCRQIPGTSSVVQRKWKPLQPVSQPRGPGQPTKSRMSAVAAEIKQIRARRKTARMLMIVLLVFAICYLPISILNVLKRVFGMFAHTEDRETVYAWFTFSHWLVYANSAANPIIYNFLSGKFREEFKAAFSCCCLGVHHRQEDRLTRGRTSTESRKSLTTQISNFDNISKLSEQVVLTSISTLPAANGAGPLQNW
Described as above. Format: cell-based. Particulars: CHO, read-out: Human Orexin2 receptor inhibition (at 10 μM). A digest of the protocol:
as §1

The mark [1] stands for this setting: 10 μM test compound, CHO cells expressing human OX1 receptor, OX-A 1 nM.
Where [2] appears, read: 10 μM test compound, CHO cells expressing human OX2 receptor, OX-A 0.3 nM.

With `C[C@@H]1CON(c2ccnc(C3CC3)n2)C[C@H](C)N1C(=O)c1ccccc1-n1nccn1` [Example 175, ((4S,6R)-2-(2-cyclopropylpyrimidin-4-yl)-4,6-dimethyl-1,2,5-oxadiazepan-5-yl) (2-(2H-1,2,3-triazol-2-yl)phenyl)methanone], the results for the inhibition at 10 µM at human OX1 receptor (setting [1]) and at human OX2 receptor (setting [2]) were 99% and 98%, respectively.

`C[C@H]1CN(C(=O)c2ccccc2-c2nccs2)CCN(c2ccc(Cl)cn2)O1` [Example 90, ((7S)-2-(5-chloropyridin-2-yl)-7-methyl-1,2,5-oxadiazepan-5-yl)(2-(1,3-thiazol-2-yl)phenyl)methanone]: the values for the inhibition at 10 µM on human OX1 receptor (setting [1]) and on human OX2 receptor (setting [2]) were 101% and 96%, respectively.

In the case of `C[C@@H]1CON(c2cccc(CO)n2)CCN1C(=O)c1ccccc1-n1nccn1` [Example 158, ((6R)-2-(6-(hydroxymethyl)pyridin-2-yl)-6-methyl-1,2,5-oxadiazepan-5-yl)(2-(2H-1,2,3-triazol-2-yl)phenyl)methanone], the inhibition at 10 µM on human OX1 receptor (setting [1]) was 18%; at human OX2 receptor (setting [2]), 99%.

`C[C@H]1CN(C(=O)c2cc(Cl)ccc2-n2nccn2)CCN(c2cc(C(F)F)nc(C3CC3)n2)O1` [Example 105, (5-chloro-2-(2H-1,2,3-triazol-2-yl)phenyl)((7S)-2-(2-cyclopropyl-6-(difluoromethyl)pyrimidin-4-yl)-7-methyl-1,2,5-oxadiazepan-5-yl)methanone]: the inhibition at 10 µM was 96% at human OX1 receptor (setting [1]) and 98% on human OX2 receptor (setting [2]).

For `Cc1ccc(C(=O)N2CCN(c3cc(C)nc(C)n3)O[C@@H](C)C2)c(-c2ncccn2)c1` [Example 217, ((7S)-2-(2,6-dimethylpyrimidin-4-yl)-7-methyl-1,2,5-oxadiazepan-5-yl)(4-methyl-2-(pyrimidin-2-yl)phenyl)methanone], the inhibition at 10 µM was 50% on human OX1 receptor (setting [1]) and 101% on human OX2 receptor (setting [2]).

Take `Cc1cc(N2CCN(C(=O)c3ccccc3-n3ncnn3)CCO2)nc(C)n1` [Example 31, (2-(2,6-dimethyl-pyrimidin-4-yl)-1,2,5-oxadiazepan-5-yl) (2-(2H-tetrazol-2-yl)phenyl) methanone]: the inhibition at 10 µM was -2% at human OX1 receptor (setting [1]) and 100% on human OX2 receptor (setting [2]).

With `Cc1ccc(-n2nccn2)c(C(=O)N2CCON(c3nc4ccc(Cl)cc4o3)CC2)c1` [Example 39, (2-(6-chloro-1,3-benzoxazol-2-yl)-1,2,5-oxadiazepan-5-yl)(5-methyl-2-(2H-1,2,3-triazol-2-yl)phenyl)methanone], the results for the inhibition at 10 µM on human OX1 receptor (setting [1]) and at human OX2 receptor (setting [2]) were 100% and 98%, respectively.

`Cc1cc(N2C[C@H](C)N(C(=O)c3ccccc3-n3nccn3)CC(C)O2)nc(C)n1` (stereo partly drawn) [Example 190, ((4S)-2-(2,6-dimethylpyrimidin-4-yl)-4,7-dimethyl-1,2,5-oxadiazepan-5-yl)(2-(2H-1,2,3-triazol-2-yl)phenyl)methanone]: the inhibition at 10 µM at human OX1 receptor (setting [1]) turned out to be 107%; at human OX2 receptor (setting [2]), 111%.

For the compound `Cc1cc(N2CCN(C(=O)c3ccccc3-n3nccn3)[C@@H](C)CO2)nc(C)n1` [Example 170, ((6S)-2-(2,6-dimethylpyrimidin-4-yl)-6-methyl-1,2,5-oxadiazepan-5-yl)(2-(2H-1,2,3-triazol-2-yl)phenyl)methanone], the inhibition at 10 µM at human OX1 receptor (setting [1]) was 20%; on human OX2 receptor (setting [2]) it was 100%.

With `Cc1cc(C)nc(N2CCN(C(=O)c3cccc4ncccc34)CCO2)n1` [Example 65, (2-(4,6-dimethylpyrimidin-2-yl)-1,2,5-oxadiazepan-5-yl) (quinolin-5-yl)methanone], the inhibition at 10 µM turned out to be 9% on human OX1 receptor and 84% at human OX2 receptor.

With `Cc1cc(N2CCN(C(=O)c3cc(F)c(F)cc3-c3ncc(F)cn3)CCO2)nc(C)n1` [Example 223, (4,5-difluoro-2-(5-fluoropyrimidin-2-yl)phenyl)(2-(2,6-dimethylpyrimidin-4-yl)-1,2,5-oxadiazepan-5-yl)methanone], the inhibition at 10 µM on human OX1 receptor (setting [1]) worked out at 17%; at human OX2 receptor (setting [2]) it was 101%.

On to `Cc1cc(C)nc(N2CCN(C(=O)c3cccc4c3OCC4)CCO2)n1` [Example 74, 2,3-dihydro-1-benzofuran-7-yl (2-(4,6-dimethylpyrimidin-2-yl)-1,2,5-oxadiazepan-5-yl)methanone], for which the inhibition at 10 µM on human OX1 receptor (setting [1]) turned out to be 10%; on human OX2 receptor (setting [2]) it was 57%.

As to `Cc1cc(N2CCN(C(=O)c3ccccc3-n3nccn3)[C@H](C)CO2)nc(C(C)(C)C)n1` [Example 154, ((6R)-2-(2-tert-butyl-6-methylpyrimidin-4-yl)-6-methyl-1,2,5-oxadiazepan-5-yl)(2-(2H-1,2,3-triazol-2-yl)phenyl)methanone], the inhibition at 10 µM amounted to 97% at human OX1 receptor (setting [1]) and 91% on human OX2 receptor (setting [2]).

`Cc1cc(N2CCN(C(=O)c3ccc(Cl)cc3-n3nccn3)CCO2)nc(C)n1` [Example 204, (4-chloro-2-(2H-1,2,3-triazol-2-yl)phenyl)(2-(2,6-dimethylpyrimidin-4-yl)-1,2,5-oxadiazepan-5-yl)methanone]: the inhibition at 10 µM at human OX1 receptor (setting [1]) is 70%; at human OX2 receptor (setting [2]) it was 101%.

Regarding `Cc1cc(N2CCN(C(=O)c3cc(F)ccc3-c3ncccn3)CCO2)nc(C)n1` [Example 27, (2-(2,6-dimethyl-pyrimidin-4-yl)-1,2,5-oxadiazepan-5-yl) (5-fluoro-2-(pyrimidin-2-yl)phenyl) methanone], the inhibition at 10 µM at human OX1 receptor (setting [1]) came out at 45%; on human OX2 receptor (setting [2]), 102%.

For `Cc1cc(C)nc(N2CCN(C(=O)c3cccc4ccccc34)CCO2)n1` [Example 64, (2-(4,6-dimethylpyrimidin-2-yl)-1,2,5-oxadiazepan-5-yl) (1-naphthyl)methanone], the inhibition at 10 µM at human OX1 receptor (setting [1]) was determined as 76%; at human OX2 receptor (setting [2]), 101%.

Consider `Cc1cc(C)nc(N2CCN(C(=O)c3ccccc3-n3cccc3)CCO2)n1` [Example 80, (2-(4,6-dimethylpyrimidin-2-yl)-1,2,5-oxadiazepan-5-yl) (2-(1H-pyrrol-1-yl)phenyl)methanone], for which the inhibition at 10 µM on human OX1 receptor was found to be 14%; on human OX2 receptor, 94%.

As to `Cc1cc(N2CCN(C(=O)c3ccccc3-n3nccn3)C[C@H](C)O2)nc(C(F)(F)F)n1` [Example 94, ((7S)-7-methyl-2-(6-methyl-2-(trifluoromethyl)pyrimidin-4-yl)-1,2,5-oxadiazepan-5-yl) (2-(2H-1,2,3-triazol-2-yl)phenyl)methanone], the inhibition at 10 µM at human OX1 receptor (setting [1]) was 106%; at human OX2 receptor (setting [2]), 104%.

For the compound `C[C@H]1CN(C(=O)c2ccccc2-n2nccn2)CCN(c2cc(C3CC3)nc(C3CC3)n2)O1` [Example 96, ((7S)-2-(2,6-dicyclopropylpyrimidin-4-yl)-7-methyl-1,2,5-oxadiazepan-5-yl) (2-(2H-1,2,3-triazol-2-yl)phenyl)methanone], the inhibition at 10 µM on human OX1 receptor (setting [1]) and on human OX2 receptor (setting [2]) was 98% throughout.

Turning to `Cc1ccc(-n2nccn2)c(C(=O)N2CCN(c3ncccc3Cl)OC[C@H]2C)c1` [Example 122, ((6R)-2-(3-chloropyridin-2-yl)-6-methyl-1,2,5-oxadiazepan-5-yl) (5-methyl-2-(2H-1,2,3-triazol-2-yl)phenyl)methanone], the values for the inhibition at 10 µM at human OX1 receptor (setting [1]) and at human OX2 receptor (setting [2]) were 11% and 69%, respectively.

Take `Cc1cc(N2CCN(C(=O)c3ccccc3-c3nc(C)no3)CCO2)nc(C)n1` [Example 24, (2-(2,6-dimethyl-pyrimidin-4-yl)-1,2,5-oxadiazepan-5-yl) (2-(3-methyl-1,2,4-oxadiazol-5-yl)phenyl) methanone]: the inhibition at 10 µM at human OX1 receptor (setting [1]) was 13%; at human OX2 receptor (setting [2]) it was 99%.

Usually inhibition stands for the change of the read-out against control, counted positive when it falls.
